Reference: patent publication US4151268A, “Barbituric acid antigens and antibodies specific therefor” (Hoffmann-La Roche Inc., priority 1977, dated 1979)

How the values were obtained:
[1] = system: barbituric acid specific antibody (antisera obtained in Example 2); assay: Comparison runs: recognition of other barbituric acid derivatives and related compounds by the antibody; settings: at similar concentrations
[2] = system: barbituric acid specific antibody (antisera obtained in Example 2); assay: Radioimmunoassay: competitive inhibition of binding of [C14] pentobarbital to antiserum (ammonium sulfate precipitation); settings: 4° C., overnight

In the case of `CCC1(CC)C(=O)NC(=O)NC1=O` [barbital], the “recognition / binding by the antibody” value [1] is reported as “capable of recognizing”.

For `CN1C(=O)NC(=O)C(C)(C2=CCCCC2)C1=O` (centres unmarked) [hexobarbital], the “recognition / binding by the antibody” value [1] was “failed to bind”.

For `CCCC(C)C1(CC)C(=O)NC(=O)NC1=O` (centres unmarked) [pentobarbital], the “recognition / binding by the antibody” value [1] was “capable of recognizing”, the “Percent inhibition of binding of pentobarbital-C^14” value (“Percent inhibition” for short) ([2]; 1 nanogram non-radioactive pentobarbital added) was 10% and the “Percent inhibition” value ([2]; 5 nanograms non-radioactive pentobarbital added, sample volume 10 μl) was 20%. The “Percent inhibition” value ([2]; 10 nanograms non-radioactive pentobarbital added) was 28%, the “Percent inhibition” value ([2]; 20 nanograms non-radioactive pentobarbital added) was 43% and the “Percent inhibition” value ([2]; 30 nanograms non-radioactive pentobarbital added) was 52%. For the same compound, the “Percent inhibition” value ([2]; 40 nanograms non-radioactive pentobarbital added) was 63%.

For `CCC1(c2ccccc2)C(=O)NC(=O)NC1=O` [phenobarbital], the “recognition / binding by the antibody” value [1] was “capable of recognizing”.

`CCCC(C)C1(CC)C(=O)NC(=S)NC1=O` (centres unmarked) [thiopental] was tested, and the “recognition / binding by the antibody” value [1] was “failed to bind”.
